The record followed here is patent US10996205B2, “Stress biomarkers and related non-invasive detection methods” (ARIZONA BOARD OF REGENTS ON BEHALF OF THE UNIVERSITY OF …, priority 2015, dated 2021).

The data set is described as follows: Stability of cortisol in human eccrine sweat at room temperature.

Method: To test the stability of cortisol in human eccrine sweat in order to improve sweat collection method and procedures, aliquots of the same sweat samples were left at room temperature for a duration of 3 hours, with each aliquots analyzed every 30 minutes in first hour and every hour afterwards.
Spiked human eccrine sweat samples were tested over a period of 3 hours at room temperature.

With `C[C@]12CCC(=O)C=C1CC[C@@H]1[C@@H]2[C@@H](O)C[C@@]2(C)[C@H]1CC[C@]2(O)C(=O)CO` [cortisol, 4-PREGNEN-11β, 17, 21-TRIOL-3, 20-DIONE], the “cortisol loss in spiked human eccrine sweat” value (period of 3 hours at room temperature) was “No measurable cortisol loss”. The Concentration reads like this: (spiked sweat, 0 minutes at room temperature) 29.191 ng/mL; (spiked sweat, 30 minutes at room temperature) 36.802 ng/mL; (spiked sweat, 1 hour at room temperature) 30.807 ng/mL; (spiked sweat, 2 hours at room temperature) 30.228 ng/mL; (spiked sweat, 3 hours at room temperature) 29.515 ng/mL; (unspiked human eccrine sweat) 3.488 ng/mL.
